Data on 28 molecules can be found in patent US5922748A, “Indole derivatives as 5-HT agonists” (Glaxo Wellcome Inc., priority 1994, dated 1999).

Where two headings read alike, the source gives them in different places.

The target in assay [1] is T1, "5-HT1 -like" receptor mediating smooth muscle contraction (Oryctolagus cuniculus, UniProt P49144).
T1 construct: Right and left lateral saphenous veins were obtained from male New Zealand White Rabbits; from tissue; host or cells: rabbit lateral saphenous vein ring segments
Put plainly: Rabbit Saphenous Vein Assay (contraction of isolated ring segments). The format is cell-based, male New Zealand White Rabbits. Conditions: for Emax: read-out: (α). The method, then:
A: Rabbit Saphenous Vein Assay
Compounds of formula (I) prepared in Synthetic Examples 1 to 17 were each tested for their activity as agonists […] for the "5-HT1 -like" receptor mediating smooth muscle contraction by the following method.
[…]. Cocaine (30 μM) was present in the Krebs' solution throughout the experiment to prevent the uptake of amines by sympathetic neurones. The Krebs' solution was maintained at 37° C. and continually gassed with 95% oxygen/5% carbon dioxide. Increases in tissue isometric force were measure using Grass FT03C force displacement transducers and recorded on a Gould BD-212 pen recorder.
A force of 1.0 g was applied to each preparation and re-established twice during a subsequent period of 30 minutes.
Agonist activity was assessed by […] additions of the test compound, its concentration being increased in 0.5 log10 unit increments until further additions caused no further change in tissue force. In each experiment, the activity of the test compound was compared to the activity of 5-HT.

The target of assay [2] is T1, "5-HT1 -like" receptor mediating smooth muscle contraction. The description is as above. Format: cell-based, male New Zealand White Rabbits. Particulars: antagonism, given where compounds were found to be antagonists.
Assay [3] deals with T2, "5-HT1 -like" receptor (Bos taurus, UniProt F1MGM3).
T2 construct: Membranes were prepared from homogenates of calf caudate nucleus; from tissue; host or cells: calf caudate nucleus membranes
Put plainly: Calf Caudate Assay (competition binding with [3H]-5HT, calf caudate nucleus membranes). Conditions: 3.5 nM [3H]-5HT with 15 μM mesulergine and 15 μM 8-OH-DPAT, text says pIC50 converted by Cheng-Prusoff.

[4] abbreviates: agonism, rabbit saphenous vein rings, 37° C., pH 7.4, compared to 5-HT, read-out: pA50 (converted).
Where [5] appears, read: value in parentheses after pA50 in Table 1, rabbit saphenous vein, compared to 5-HT.

T1 sequence (P49144 whole entry): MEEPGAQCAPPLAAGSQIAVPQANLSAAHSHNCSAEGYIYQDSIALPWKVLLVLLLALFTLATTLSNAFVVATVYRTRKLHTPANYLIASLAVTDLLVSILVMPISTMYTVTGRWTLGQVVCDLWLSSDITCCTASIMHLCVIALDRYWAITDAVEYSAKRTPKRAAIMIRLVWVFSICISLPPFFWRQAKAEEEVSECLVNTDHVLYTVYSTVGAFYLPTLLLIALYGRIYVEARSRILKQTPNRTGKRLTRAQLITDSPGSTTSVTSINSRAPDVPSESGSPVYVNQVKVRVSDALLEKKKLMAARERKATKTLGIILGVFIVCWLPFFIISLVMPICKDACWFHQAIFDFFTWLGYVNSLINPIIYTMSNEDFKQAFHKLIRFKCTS
T2 sequence (F1MGM3 1-403): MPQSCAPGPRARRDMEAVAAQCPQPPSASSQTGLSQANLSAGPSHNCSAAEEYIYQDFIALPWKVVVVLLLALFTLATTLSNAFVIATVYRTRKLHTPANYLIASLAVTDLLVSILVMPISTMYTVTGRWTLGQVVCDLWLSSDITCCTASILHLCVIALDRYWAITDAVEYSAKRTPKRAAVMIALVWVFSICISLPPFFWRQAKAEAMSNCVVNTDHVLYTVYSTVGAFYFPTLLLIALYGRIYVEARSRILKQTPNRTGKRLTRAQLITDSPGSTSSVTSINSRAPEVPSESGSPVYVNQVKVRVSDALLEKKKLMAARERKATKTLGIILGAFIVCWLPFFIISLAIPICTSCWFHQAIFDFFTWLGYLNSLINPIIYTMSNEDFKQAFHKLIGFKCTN

For `CN1C(=O)OC[C@H]1Cc1ccc2[nH]cc([C@H]3C[C@H](N(C)C)C3)c2c1` [Example 13, 4-[3-(trans-3-dimethylaminocyclobutyl)-1H-indol-5-ylmethyl]-3-methyl(4R)oxazolidin-2-one], the EC50 in assay [1] (setting [4]) is 14100 nM. Besides, in assay [1] (setting [5]), the Emax was found to be 38%. As for `N[C@H]1C[C@@H](c2c[nH]c3ccc(C[C@H]4COC(=O)N4)cc32)C1` [Example 1 (cis), 4-[3-(cis-3-aminocyclobutyl)-5-indolymethyl]-(4S)-oxazolidin-2-one acetate], in assay [1] (setting [4]), the EC50 was 1580 nM. The Emax in assay [1] (rabbit) came to 76%.

`CN(C)[C@H]1C[C@H](c2c[nH]c3ccc(C[C@@H]4COC(=O)N4)cc32)C1` [Example 11, 4-[3-(trans-3-dimethylaminocyclobutyl)-1H-indol-5-ylmethyl]-(4R)oxazolidin-2-one] showed a Kb in assay [2] of 11200 nM. For the molecule `CN(C)[C@H]1C[C@H](c2c[nH]c3ccc(CCN4C(=O)c5ccccc5C4=O)cc32)C1` [Example 24, 2-{2-[3-(trans-3-dimethylaminocyclobutyl)-1H-indol-5-yl]ethyl} phthalamide], in assay [1] (setting [4]), the EC50 was 6170 nM. Moreover, the Emax in assay [1] (setting [5]) amounted to 48%. Take `Cc1nc(Cc2ccc3[nH]cc([C@H]4C[C@H](N(C)C)C4)c3c2)n[nH]1` [Example 28, 3-methyl-5-[3-(trans-3-dimethylaminocyclobutyl)-1H-indol-5-ylmethl]1,2,4-triazole]: the Kb in assay [2] is 6610 nM. Same read-out and setting: as for `CN(C)[C@H]1C[C@H](c2c[nH]c3ccc(CC(=O)NCc4ccccc4)cc32)C1` [Example 26, N-benzyl-3-[trans-3-dimethylaminocyclobutyl]-1H-indol-5-yl acetamide], the figure is 3890 nM. In assay [1], `Cc1noc(-c2ccc3[nH]cc([C@H]4C[C@H](N(C)C)C4)c3c2)n1` [Example 18, 3-methyl-5-[3-(trans-3-dimethylaminocyclobutyl)indol-5-yl]-1,2,4-oxadiazole] had a Kb of 955 nM. The molecule `CN(C)[C@H]1C[C@H](c2c[nH]c3ccc(CC(N)=O)cc32)C1` [Example 25, 3-[trans-3-dimethylaminocyclobutyl]-1H-indol-5-yl acetamide] gave a Kb in assay [1] of 16600 nM.

`CN(C)[C@H]1C[C@H](c2c[nH]c3ccc(Oc4ccccc4)cc32)C1` [Example 17, 5-phenoxy-3-(trans-3-dimethylaminocyclobutyl)-1H-indole] gave a Kb in assay [1] of 240 nM. For the molecule `CN(C)[C@H]1C[C@H](c2c[nH]c3ccc(C[C@H]4COC(=O)N4)cc32)C1` [Example 4, 4-[3-(trans-3-dimethylaminocyclobutyl)-1H-indol-5-ylmethyl]-(4S)oxazolidin-2-one], in assay [1] (setting [4]), the EC50 was 1910 nM. Also, the Emax in assay [1] (setting [5]) worked out at 9%.

Take `CNS(=O)(=O)Cc1ccc2[nH]cc([C@H]3C[C@H](N(C)C)C3)c2c1` [Example 10, N-methyl-[3-(trans-3-dimethylaminocyclobutyl)-1H-indol-5-yl]methanesulphonamide]: the Kb in assay [1] was 5620 nM.

`CN(C)[C@H]1C[C@H](c2c[nH]c3ccc(CCN4C(=O)c5ccccc5C4=O)cc32)C1` [Example 7] gave a Kb in assay [2] of 170 nM.

In turn, `CN(C)[C@H]1C[C@H](c2c[nH]c3ccc(C(=O)NCc4ccccc4)cc32)C1` [Example 23] showed a Kb in assay [2] of 1260 nM. `N[C@H]1C[C@H](c2c[nH]c3ccc(C[C@H]4COC(=O)N4)cc32)C1` [Example 1 (trans), 4-[3-(trans-3-aminocyclobutyl)-5-indolylmethyl)-(4S)-oxazolidin-2-one acetate] had an EC50 in assay [1] of 380 nM. The Emax in assay [1] (rabbit) turned out to be 78%. As for `N[C@H]1C[C@H](c2c[nH]c3ccc(C[C@H]4COC(=O)N4)cc32)C1` [Example 1, 4-[3-(trans-3-aminocyclobutyl)-5-indolylmethyl)-(4S)-oxazolidin-2-one], the “Activity P[A50 ]” value in assay [3] stood at 7.8.

The molecule `Cc1noc(Cc2ccc3[nH]cc([C@H]4C[C@H](N(C)C)C4)c3c2)n1` [Example 27, 3-methyl-5-[3-(trans-3-dimethylaminocyclobutyl)-1H-indol-5-ylmethyl] 1,2,4-oxadiazole] showed a Kb in assay [2] of 759000 nM. On to `CN(C)[C@H]1C[C@H](c2c[nH]c3ccc(CC4CNC(=O)O4)cc32)C1` (single isomer, unassigned; (+)) [Example 21, (+)-5-[3-trans-3-dimethylaminocyclobutyl-1H-indol-5-lmethyl]oxazolidin-2-one], for which the EC50 in assay [1] (setting [4]) is 3630 nM. Besides, the Emax in assay [1] (setting [5]) was found to be 16%.

Broadly, the pKb is the Kb on a negative log10 scale, so that one unit is a factor of ten. Lower therefore signals a high Kb. `CN(C)[C@H]1C[C@H](c2c[nH]c3ccc(CCN4C(=O)CC5(CCCCC5)CC4=O)cc32)C1` [Example 8, 3-{2-[3-(trans-3-dimethylaminocyclobutyl)-1H-indol-5-yl]ethyl}-3-azaspiro[5,5]undecane-2,4-dione] showed a pKb in assay [2] of 7.18. As for `CN(C)[C@H]1C[C@H](c2c[nH]c3ccc(CCN4C(=O)CNC4=O)cc32)C1` [Example 3], in assay [2], the Kb is 1910 nM. In the case of `N[C@H]1C[C@H](c2c[nH]c3ccc(Oc4ccccc4)cc32)C1` [Example 16, 5-phenoxy-3-(trans-3-aminocyclobutyl)-1H-indole], the Kb in assay [1] was > 316 nM.

Turning to `CN(C)[C@H]1C[C@H](c2c[nH]c3ccc(CN4C(=O)CNC4=O)cc32)C1` [Example 9, 3-[3-(trans-3-dimethylaminocyclobutyl)-1H-indol-5-ylmethyl]imidazolidin-2,4-dione], the Kb in assay [2] was 9330 nM. With `CN(C)[C@H]1C[C@H](c2c[nH]c3ccc(C(N)=O)cc32)C1` [Example 14, 5-carboxamido-3-(trans-3-dimethylaminocyclobutyl)-1H-indole], in assay [1], the EC50 was 562 nM. Also, in assay [1] (rabbit), the Emax worked out at 52%. Molecule `CN(C)[C@H]1C[C@H](c2c[nH]c3ccc(CCN4C(=O)NC(C)(C)C4=O)cc32)C1` [Example 5] had a Kb in assay [2] of 891 nM. In assay [2], `CC1(C)NC(=O)N(CCc2ccc3[nH]cc([C@H]4C[C@H](N)C4)c3c2)C1=O` [Example 6, 3-{2-[3-(trans-3-aminocyclobutyl)-1H-indol-5-yl]ethyl}-5,5-dimethylimidazolidin-2,4-dione] showed a Kb of 2690 nM.

As for `CN(C)[C@H]1C[C@@H](c2c[nH]c3ccc(C[C@H]4COC(=O)N4)cc32)C1` [Example 15], the EC50 in assay [1] (setting [4]) is 7080 nM. Further, the Emax in assay [1] (setting [5]) stood at 29%. On to “4-[3-(trans-3dimethylaminocyclobut-1-ylmethyl)-1H-indol-5-ylmethyl]-(4S)oxazolidin-2-one [Example 19]”, for which, in assay [2], the pKb came out at 5.73.

Molecule `CN(C)[C@H]1C[C@H](c2c[nH]c3ccc(CN4C(=O)NC(C)(C)C4=O)cc32)C1` [Example 12, 5,5-dimethyl-3-[3-(trans-3-dimethylaminocyclobutyl)-1H-indol-5-ylmethyl]imidazolidin-2,4-dione] showed a Kb in assay [2] of 589 nM. With `CN[C@H]1C[C@H](c2c[nH]c3ccc(C[C@H]4COC(=O)N4)cc32)C1` [Example 22, 4-[3-(trans-3-methylaminocyclobutyl)-1H-indol-5-ylmethyl]-(4S) oxazolidin-2-one], the EC50 in assay [1] (setting [4]) was 708 nM. In addition, the Emax in assay [1] (setting [5]) was determined as 72%.
